What was measured:
rat VSMC = experiment: Stimulation of VSMC with interferon-γ and LPS, dependence of NO2 production on cytokine and L-arginine; format: cell-based; settings: extracellular L-arginine over the range of 0 to 10mM, IFN-γ (100U/ml) and LPS (100µg/ml) 24 hours
Experimental: (§1) Rat VSMCs were prepared from the media layer of thoracic aorta of Sprague-Dawley rats by the explant method. The cells were cultured in Dulbecco's modified Eagle's medium (DMEM, Gibco BRL, Gaithersburg, MD) containing 10% fetal calf serum, 100U/ml penicillin and 100µg/ml streptomycin at 37°C under a humidified atmosphere containing 5% CO2. After subconfluent growth, cells were cultured with MEM Select Amine Kit (Gibco BRL, Gaithersburg, MD) to be treated by specific concentrations of extracellular free L-arginine. Experiments were performed using cultured cells at passage levels of 5-10.
Extracellular NO production was measured as its stable oxidative metabolite, nitrite (NO2). […] Values of NO2 production were corrected with relative cell count assessed by a cell proliferation kit II (XTT) (Boeheringer Mannheim, Germany).
Cells were plated at a density of 5 × 10^3 per well into 96-well plates. […] After 24 hours of incubation, the cells were then treated with a mixture of IFN-γ (100U/ml) and LPS (100µg/ml) in the medium containing the same dose of L-arginine for another 24 hours, and nitrite (NO2) accumulation in the culture medium was quantified.
No detectable NO2 was measured in the medium of non-stimulated VSMC. When cells were stimulated with a mixture of IFN-γ (100U/ml) and LPS ([…]), a significant amount of NO2 was detected in the medium (14.7 ± 0.3 µM / 10^5 cells / 24 hours). […]

cytokine-stimulated VSMC = experiment: Effect of arginine oligomers on NO production (NO2, Griess reaction) in cytokine-stimulated VSMC; format: cell-based, rat
Experimental: as §1
Extracellular NO production was measured as its stable oxidative metabolite, nitrite (NO2). At the end of each incubation, samples of the medium (80µl) were collected, and NO2 measurement was performed using the Griess reaction facilitated by a commercial colorimetric assay (Cayman Chemical, Ann Arbor, MI). Values of NO2 production were corrected with relative cell count assessed by a cell proliferation kit II (XTT) (Boeheringer Mannheim, Germany).
Subconfluent cells were pre-incubated with medium containing 100µM arginine for 24 hours. […] After translocation, the cells were incubated with a mixture of IFN-γ (100U/ml) and LPS (100µg/ml) in medium containing 100µM L-arginine for another 24 hours. In some experiments, L-NMMA (1mM), a nitric oxide synthase inhibitor, was added to the medium.

[1] = system: rabbit carotid artery segment; experiment: Ex vivo translocation of biotin-labeled peptides into carotid artery segments; set-up: species or system New Zealand white rabbits; settings: reincubated in DMEM with 10% FBS; for positive staining (internalized biotin): day 5 after exposure (10.0 µM, 30 minutes)
Experimental: After incubation with biotin labeled oligomer, vascular segments were washed, then frozen in OCT compound (Miles Scientific). Frozen sections, 5 µm thick, were fixed with acetone for 10 minutes. Internalized biotin was detected using the staining procedure described in Example 2. Methyl green was used for nuclear counter staining.
To quantify the efficiency of nuclear translocation, the numbers of both DAB positive nuclei and total nuclei were counted in the intima and media separately at X400 magnification with a video image analysis system (Automatrix). The frequency of nuclear translocation was expressed as the percent staining of nuclei, defined as the ratio of the number of DAB positive nuclei to that of all nuclei, in the intima and media. Each protocol was repeated 4 times.
Both carotid artery and jugular vein segments of male New Zealand white rabbits were used. To test the dose dependence of R7 translocation, vascular segments were incubated for 30 minutes with either bL-R7 or bD-R7 solution (0.1, 1.0, and 10.0 µM) in serum-free Dulbecco's minimal essential medium (DMEM) (Gibco BRL). To test the incubation time dependence, vascular segments were incubated with 10.0 µM of biotin labeled R7 solution for 10 seconds, 60 seconds, 5 minutes, 10 minutes, and 30 minutes. Furthermore, to determine the ability of R7 to penetrate through the vessel wall, vascular segments were ligated one end, R7 containing medium was instilled, and the other end ligated so as to expose only the luminal surface to R7. The luminal surface of the vascular segment was exposed to bL-R7 or bD-R7 (10.0 µM) for 30 minutes. To test the temperature dependence of translocation, vascular segments were incubated with 10.0 µM of biotin labeled R7 solutions at 37°C or 4°C. To determine the disappearance time course of translocated R7. vascular segments were incubated with biotin labeled R7 solutions (10.0 µM) at 37°C for 30 minutes, and then reincubated in DMEM with 10% FBS up to 5 days. Vascular segments were harvested at 1, 2 and 5 days after initial incubation.

[2] = system: human umbilical vein endothelial cells (ECV304); experiment: In vitro translocation of biotin-labeled peptides into endothelial cells; format: cell-based; settings: control treatments, 30 minutes incubation (peptides 0.1, 1.0, and 10.0 µM)
Experimental: In the studies described below, transmembrane transport and cellular uptake of oligomers was assessed by incubating cells or tissue with biotin-oligomer conjugates, followed by treatment with horseradish peroxidase (HRP)-conjugated streptavidin and subsequent incubation with DAB (3,3'-diaminobenzidine), a substrate of the enzyme which produces a highly colored product.
Spontaneously transformed human umbilical vein endothelial cells (ECV304, ATCC) were cultured in medium M199 (Irvine Scientific) containing 10% fetal bovine serum (FBS), 100 IU/ml penicillin and 100 µg/ml of streptomycin (Gibco BRL). Confluent cells were washed and placed in serum-free medium. After 2 hours, the cells were incubated in presence of biotin labeled peptides, as bL-R7, or bD-R7, or bL-K7 (0.1, 1.0, and 10.0 µM). After 30 minutes of incubation, cells were washed 3 times with phosphate-buffered saline (PBS), fixed in ethanol/acetone; washed in PBS; incubated for 30 minutes with peroxidase suppressor (ImmunoPure, Pierce) to block endogenous peroxidase activity; and then incubated with 5 µg/ml of horse-radish peroxidase (HRP) conjugated strepavidin (Pierce) for 30 minutes. Substrate of HRP, diaminobenzidine (DAB, Sigma), was added to the cells. The reaction was terminated by washing in distilled water after a 60-second incubation. This experiment was repeated 3 times.

Question: What does the source list for `N=C(N)NCCC[C@H](N)C(=O)O` [L-arginine]?
Answer: NO2 synthesis by cytokine stimulated VSMC (rat VSMC): progressive increase in NO2 synthesis; NO biosynthesis (cytokine-stimulated VSMC; 1 mM for 5 minutes (data not shown)): did not significantly increase NO biosynthesis; elevation of NO production (cytokine-stimulated VSMC; high concentrations, up to 1mM): not observed

Question: Which “positive staining (internalized biotin)” value [1] does the source give for `N=C(N)NCCC[C@H](NC(=O)[C@H](CCCNC(=N)N)NC(=O)[C@H](CCCNC(=N)N)NC(=O)[C@H](CCCNC(=N)N)NC(=O)[C@H](CCCNC(=N)N)NC(=O)[C@H](CCCNC(=N)N)NC(=O)[C@H](CCCNC(=N)N)NC(=O)CCCC[C@@H]1SC[C@@H]2NC(=O)N[C@@H]21)C(=O)O` [bR7, biotin-labeled heptaarginine] here?
Answer: No significant positive staining was observed

Question: How did the internalized biotin signals [2] turn out when `O=C(O)CCCC[C@@H]1SC[C@@H]2NC(=O)N[C@@H]21` [biotin] was run?
Answer: No internalized biotin signals were detected

Question: Which “positive staining (internalized biotin)” value [1] does the source give for `N=C(N)NCCC[C@@H](NC(=O)[C@@H](CCCNC(=N)N)NC(=O)[C@@H](CCCNC(=N)N)NC(=O)[C@@H](CCCNC(=N)N)NC(=O)[C@@H](CCCNC(=N)N)NC(=O)[C@@H](CCCNC(=N)N)NC(=O)[C@@H](CCCNC(=N)N)NC(=O)CCCC[C@@H]1SC[C@@H]2NC(=O)N[C@@H]21)C(=O)O` [bD-r7] here?
Answer: No significant positive staining was observed

Question: And the “residual nuclear biotin in endothelial and medial cells” value ([1]; days 1 and 2 after exposure (10.0 µM, 30 minutes))?
Answer: greater in vascular segments treated with bD-r7 than those treated with bL-R7

Source: patent EP1656945A1, “Pharmaceutical composition comprising oligoarginine” (THE BOARD OF TRUSTEES OF THE LELAND STANFORD JUNIOR …, priority 1999, dated 2006)
